Experimental data reported in paper PMC6492180, “Cytome micronucleus assays with a metabolically competent human derived liver cell line (Huh6): A promising approach for routine testing of chemicals?” (Environmental and Molecular Mutagenesis, 2018).
Where two headings read alike, the source gives them in different places. Marks after values point to notes of the source that are not given here.

Experiments:
Huh6 cells = tested on: Huh6 cells
Method: All experiments were performed in duplicate.
3.8–4.0 × 10^5 cells per well were seeded into 6‐well plates with 3 mL of RPMI (4% FBS) for 12 hr, then dilutions of stock solutions of the diagnostic mutagens were added for different time periods (4, 24, and 48 hr). In each experimental series solvent controls were included. Subsequently, the cells were washed twice with 3.0 mL medium. […] Finally, the cells were washed and trypsinised. Afterwards the cells were washed twice with 8.0 mL RPMI and collected on slides by cytocentrifugation (600 rpm, 5 min). The slides were air dried, fixed, and stained with DiffQuick according to the instructions of the manufacturer. For each experimental point, two cultures were tested per dose. From each culture ≥1,000 BN cells were evaluated under 400‐fold magnification (Nikon Photophot‐FXA, Tokyo, Japan). At least 2,000 binucleated cells were analyzed per dose for the determination of the different nuclear anomalies (MN, NBuds, and NBs).
The experiments were performed as described in the previous chapter. The cells were exposed only to one dose of the different mutagens and were cultivated after the seeding in 6‐well plates which contained 4% or 10% FBS in RPMI, respectively.
Data were evaluated by generalized linear model with Poisson counts. Chi‐square tests for overdispersion were applied. […] P values ≤0.05 were considered statistically significant.
^150-60 000 cells were seeded in 6 well plates with 3 ml RPMI (4% FBS), subsequently different solutions of the test compound (dissolved in medium) were added. After treatment for different time periods, the cells was washed and processed as described in the Material and Method section. […] From each culture 1000 binoculated cells were evaluated. BN-MN – number of micronucleated cells; MN - total number of micronuclei; CBPI – cytokinesis-block proliferation index
^1The experiments were conducted essentially as described in the footnote of Table S1A-I. *p≤0.05

HepG2 = settings: HepG2, cited from earlier work
Hep3B = settings: Hep3B; ref Majer et al., 2004; cited from earlier work
Human lymphocytes = settings: Human lymphocytes, + S9; ref Katic et al., 2010; cited from earlier work
[1] = ref IARC (2018); cited from earlier work
[2] = 10% FBS, 24 hr treatment, 100 µM

Question: Which “MN effects after 24 hr (or longer) compared with 4 hr treatment (in words)” value (Huh6 cells; 4% FBS) does the source give for `CN(C)N=O` [NDMA, N‐nitrosodimethylamine] here?
Answer: more pronounced effects

Question: What about the “BN-MN (number of micronucleated cells)” value (Huh6 cells; 4% FBS, 4hrs, 50 mM) of the same molecule?
Answer: 21.0 ± 1.4 ‰

Question: And the Bridges (Huh6 cells; 4% FBS, 4hrs, 50 mM)?
Answer: 0.5 ± 0.7 ‰

Question: What about the Buds (Huh6 cells; 4% FBS, 4hrs, 50 mM) of the same molecule?
Answer: 16.5 ± 2.1 ‰

Question: And the CBPI (Huh6 cells; 4% FBS, 4hrs, 50 mM)?
Answer: 1.7 ± 0.1

Question: And the “MN (total number of micronuclei)” value (Huh6 cells; 4% FBS, 4hrs, 50 mM)?
Answer: 21.5 ± 0.7 ‰

Question: And the “BN-MN (number of micronucleated cells)” value (Huh6 cells; 4% FBS, 4hrs, 100 mM)?
Answer: 24.0 ± 2.8 ‰

Question: What about the Bridges (Huh6 cells; 4% FBS, 4hrs, 100 mM) of the same molecule?
Answer: 0.5 ± 0.7 ‰

Question: What about the Buds (Huh6 cells; 4% FBS, 4hrs, 100 mM) of the same molecule?
Answer: 20.0 ± 1.4 ‰

Question: And the CBPI (Huh6 cells; 4% FBS, 4hrs, 100 mM)?
Answer: 1.7 ± 0.0

Question: What about the “MN (total number of micronuclei)” value (Huh6 cells; 4% FBS, 4hrs, 100 mM) of the same molecule?
Answer: 26.5 ± 0.7 ‰

Question: And the “BN-MN (number of micronucleated cells)” value (Huh6 cells; 4% FBS, 4hrs, 200 mM)?
Answer: 26.5 ± 2.1* ‰

Question: What about the Bridges (Huh6 cells; 4% FBS, 4hrs, 200 mM) of the same molecule?
Answer: 0.5 ± 0.7 ‰

Question: What about the Buds (Huh6 cells; 4% FBS, 4hrs, 200 mM) of the same molecule?
Answer: 25.5 ± 5.0* ‰

Question: And the CBPI (Huh6 cells; 4% FBS, 4hrs, 200 mM)?
Answer: 1.5 ± 0.0

Question: And the “MN (total number of micronuclei)” value (Huh6 cells; 4% FBS, 4hrs, 200 mM)?
Answer: 27.5 ± 0.7* ‰

Question: And the “BN-MN (number of micronucleated cells)” value (Huh6 cells; 4% FBS, 24hrs, 25 mM)?
Answer: 20.5 ± 0.7 ‰

Question: And the Bridges (Huh6 cells; 4% FBS, 24hrs, 25 mM)?
Answer: 0.0 ± 0.0 ‰

Question: What about the Buds (Huh6 cells; 4% FBS, 24hrs, 25 mM) of the same molecule?
Answer: 7.0 ± 1.4 ‰

Question: And the CBPI (Huh6 cells; 4% FBS, 24hrs, 25 mM)?
Answer: 1.8 ± 0.1

Question: And the “MN (total number of micronuclei)” value (Huh6 cells; 4% FBS, 24hrs, 25 mM)?
Answer: 20.5 ± 0.7 ‰

Question: And the “BN-MN (number of micronucleated cells)” value (Huh6 cells; 4% FBS, 24hrs, 50 mM)?
Answer: 21.5 ± 5.0 ‰

Question: What about the Bridges (Huh6 cells; 4% FBS, 24hrs, 50 mM) of the same molecule?
Answer: 0.5 ± 0.7 ‰

Question: And the Buds (Huh6 cells; 4% FBS, 24hrs, 50 mM)?
Answer: 9.5 ± 2.1* ‰

Question: And the CBPI (Huh6 cells; 4% FBS, 24hrs, 50 mM)?
Answer: 1.8 ± 0.1

Question: And the “MN (total number of micronuclei)” value (Huh6 cells; 4% FBS, 24hrs, 50 mM)?
Answer: 22.5 ± 3.5 ‰

Question: What about the “BN-MN (number of micronucleated cells)” value (Huh6 cells; 4% FBS, 24hrs, 100 mM) of the same molecule?
Answer: 30.0 ± 2.8* ‰

Question: And the Bridges (Huh6 cells; 4% FBS, 24hrs, 100 mM)?
Answer: 3.5 ± 0.7 ‰

Question: And the Buds (Huh6 cells; 4% FBS, 24hrs, 100 mM)?
Answer: 13.0 ± 4.2* ‰

Question: What about the CBPI (Huh6 cells; 4% FBS, 24hrs, 100 mM) of the same molecule?
Answer: 1.7 ± 0.0

Question: And the “MN (total number of micronuclei)” value (Huh6 cells; 4% FBS, 24hrs, 100 mM)?
Answer: 32.0 ± 2.8* ‰

Question: And the “BN-MN (number of micronucleated cells)” value (Huh6 cells; 4% FBS, 48hrs, 25 mM)?
Answer: 20.5 ± 0.7 ‰

Question: What about the Bridges (Huh6 cells; 4% FBS, 48hrs, 25 mM) of the same molecule?
Answer: 0.5 ± 0.7 ‰

Question: What about the Buds (Huh6 cells; 4% FBS, 48hrs, 25 mM) of the same molecule?
Answer: 23.0 ± 2.8 ‰

Question: And the CBPI (Huh6 cells; 4% FBS, 48hrs, 25 mM)?
Answer: 1.8 ± 0.0

Question: And the “MN (total number of micronuclei)” value (Huh6 cells; 4% FBS, 48hrs, 25 mM)?
Answer: 21.5 ± 2.1 ‰

Question: What about the “BN-MN (number of micronucleated cells)” value (Huh6 cells; 4% FBS, 48hrs, 50 mM) of the same molecule?
Answer: 22.0 ± 4.2 ‰

Question: And the Bridges (Huh6 cells; 4% FBS, 48hrs, 50 mM)?
Answer: 1.0 ± 1.4 ‰

Question: What about the Buds (Huh6 cells; 4% FBS, 48hrs, 50 mM) of the same molecule?
Answer: 27.0 ± 4.2 ‰

Question: What about the CBPI (Huh6 cells; 4% FBS, 48hrs, 50 mM) of the same molecule?
Answer: 1.8 ± 0.0

Question: What about the “MN (total number of micronuclei)” value (Huh6 cells; 4% FBS, 48hrs, 50 mM) of the same molecule?
Answer: 23.5 ± 5.0 ‰

Question: What about the “BN-MN (number of micronucleated cells)” value (Huh6 cells; 4% FBS, 48hrs, 100 mM) of the same molecule?
Answer: 40.5 ± 2.1* ‰

Question: What about the Bridges (Huh6 cells; 4% FBS, 48hrs, 100 mM) of the same molecule?
Answer: 3.0 ± 1.4 ‰

Question: And the Buds (Huh6 cells; 4% FBS, 48hrs, 100 mM)?
Answer: 35.5 ± 3.5* ‰

Question: What about the CBPI (Huh6 cells; 4% FBS, 48hrs, 100 mM) of the same molecule?
Answer: 1.7 ± 0.1

Question: What about the “MN (total number of micronuclei)” value (Huh6 cells; 4% FBS, 48hrs, 100 mM) of the same molecule?
Answer: 53.0 ± 4.2* ‰

Question: And the “BN-MN (number of micronucleated cells)” value (Huh6 cells; [2])?
Answer: 33.0 ± 2.8*

Question: And the Bridges (Huh6 cells; [2])?
Answer: 3.5 ± 0.7

Question: What about the Buds (Huh6 cells; [2]) of the same molecule?
Answer: 28.0 ± 2.8

Question: And the CBPI (Huh6 cells; [2])?
Answer: 1.9 ± 0.0

Question: And the “MN (total number of micronuclei)” value (Huh6 cells; [2])?
Answer: 34.5 ± 5.0*

Question: What about the “Lowest effective concentration (LOEC) in micronucleus experiments” value (“Lowest effective concentration (LOEC)” below) (Huh6 cells; Huh6) of the same molecule?
Answer: 100000 µM

Question: What about the “Lowest effective concentration (LOEC)” value (HepG2; ref Majer et al., 2004) of the same molecule?
Answer: 30000 µM

Question: What about the “MN induction after 28 hr compared with 1 hr exposure (in words)” value (HepG2; ref Natarajan and Darroudi (1991)) of the same molecule?
Answer: stronger effects

Question: And the “Lowest effective concentration (LOEC)” value (HepG2; ref Valentin‐Severin et al., 2003)?
Answer: 10000 µM

Question: What about the “Lowest effective concentration (LOEC)” value (Hep3B) of the same molecule?
Answer: Negative

Question: What about the “NOEC (highest no observable effect concentration tested)” value (Hep3B) of the same molecule?
Answer: 180000 µM

Question: And the “Lowest effective concentration (LOEC)” value (Human lymphocytes)?
Answer: Negative

Question: What about the “NOEC (highest no observable effect concentration tested)” value (Human lymphocytes) of the same molecule?
Answer: 67500 µM

Question: What about the IARC classification [1] of the same molecule?
Answer: Methylation of the DNA; activation: CYP2E1; IARC: Group 2A
